{"source": "patent US20050033056A1", "about": "“Hydroxylated indole derivatives and uses thereof” (priority 2001, published 2005)", "key": {"CYP2C9": {"biological_target": "T1, CYP2C9 (Homo sapiens, UniProt P11712)", "T1 construct": "tissue Gentest Corp. (Woburn, Mass.); host or cells: pooled human liver microsomes", "T1 sequence (P11712 whole entry)": "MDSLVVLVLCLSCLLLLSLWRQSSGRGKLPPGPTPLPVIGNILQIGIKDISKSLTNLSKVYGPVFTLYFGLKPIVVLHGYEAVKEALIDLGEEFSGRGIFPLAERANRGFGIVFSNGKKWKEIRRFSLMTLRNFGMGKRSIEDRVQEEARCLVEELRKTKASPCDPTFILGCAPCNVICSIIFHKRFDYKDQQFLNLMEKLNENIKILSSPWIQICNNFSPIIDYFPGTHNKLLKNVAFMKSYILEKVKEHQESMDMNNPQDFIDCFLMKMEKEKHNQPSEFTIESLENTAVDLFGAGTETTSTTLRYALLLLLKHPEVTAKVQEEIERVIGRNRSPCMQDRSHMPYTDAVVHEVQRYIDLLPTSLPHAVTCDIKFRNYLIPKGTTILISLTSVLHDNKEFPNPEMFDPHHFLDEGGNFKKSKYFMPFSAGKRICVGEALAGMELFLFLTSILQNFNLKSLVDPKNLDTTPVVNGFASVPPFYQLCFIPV", "experiment": "CYP inhibition in HLM: S-warfarin 7-hydroxylation", "type": "in vitro ADME", "conditions": "10 or 50 μM", "procedure": "The incubations were carried out in test tubes (12.0×75 mm). The incubation mixtures (250 μL) contained 0.5 mg of HLM protein, 50 (CYP1A2 and CYP2E1) or 25 (CYP2C9, CYP2C19, CYP2D6 and CYP3A4) pmol of recombinant human CYPs, Compound 1 (10 or 50 μM), probe substrate (R—, S-warfarin, chlorzoxazone, S-mephenyloin, or bufuralol) at different concentrations, and 0.5 mg of NADPH in 50 mM Tris buffer containing 15 mM MgCl2 (pH 7.4). Compound 1 was added to the reaction mixture 5 minutes prior to the addition of the probe substrate. […]\nThe quantification was based on the calibration curves, and the quality control (QC) samples were applied to ensure the quality of the experiments. […]\n1. CYP1A2/2C9/3A4-mediated warfarin 6-, 7-, 8-, and 10-hydroxylation (Zhang et al., Drug Metab. Dispos. 23:1339-1346, 1995; Rettie et al., Chem. Res. Toxicol. 5:54-59, 1992; Brian et al., Biochemistry 29:11280-11292, 1990): Hewlett Packard 1100 HPLC system (Waldbronn, Germany) comprised a binary pump, an autosampler, a column compartment unit, a photodiode array detector (PDA), and a fluorescence detector. […] The warfarin metabolites, 6-, 8-, and 10-hydroxywarfarin, were monitored by UV at 313 nm, and 7-hydroxywarfarin by fluorescence at Ex320 nm/Em380 nm. […]"}, "5-HT1A receptor": {"biological_target": "T2, 5-HT1A receptor (Homo sapiens, UniProt P08908)", "T2 sequence (P08908 1-422)": "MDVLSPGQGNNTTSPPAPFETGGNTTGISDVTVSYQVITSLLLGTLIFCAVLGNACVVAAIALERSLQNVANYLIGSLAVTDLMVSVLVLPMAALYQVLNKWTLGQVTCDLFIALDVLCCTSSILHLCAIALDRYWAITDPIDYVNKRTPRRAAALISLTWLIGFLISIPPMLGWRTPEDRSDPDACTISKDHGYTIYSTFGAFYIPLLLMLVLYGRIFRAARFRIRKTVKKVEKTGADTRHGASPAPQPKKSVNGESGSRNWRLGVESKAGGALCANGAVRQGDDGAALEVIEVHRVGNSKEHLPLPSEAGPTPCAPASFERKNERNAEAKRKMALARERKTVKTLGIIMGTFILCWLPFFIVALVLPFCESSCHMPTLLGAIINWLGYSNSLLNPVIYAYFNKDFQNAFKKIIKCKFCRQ", "conditions": "background statement, see WO 98/43956 and EP 0 976 732 A1; cited from earlier work"}}, "data": [{"smiles": "CNC(=O)Cc1ccc2ccn(C3CCN(CCc4ccccc4F)CC3)c2c1", "note": "[Compound 1, N-methyl-[1-[1-(2-fluorophenethyl)piperidine-4-yl]-1H-indol-6-yl] acetamide]", "values": [{"measurement": "inhibitory effect on CYP2C9 activity (in words)", "setting": "CYP2C9", "result": "no inhibitory effect"}, {"measurement": "IC50, binding to 5-HT1A receptor", "setting": "5-HT1A receptor", "result": "low nanomolar"}]}]}
